According to patent US20120232070A1, “Use of Indole Derivatives as Nurr-1 Activators for the Application Thereof as a Medicament for the Treatment of Parkinson's Disease” (Laboratoires Fournier SA, priority 2009, published 2012):

Tests used:
[1] = molecular target: hNurr1_RXRγFL (NURR1/RXRγ heterodimer) (Homo sapiens, UniProt P43354+P48443); test: Transactivation assay in Cos-7 cells, NURR-1-Gal4 / RXRγ, luciferase reporter; type: cell-based; details: for Emax: COS-7, read-out: hNurr1_RXRγFL Eff (%), efficacy in % relative to the reference XCT0135908 at 2·10^−5 M (=100%); for EC50: Cos-7 cells, overnight incubation
Method in brief: (§1)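 Cos-7 cells co-transfected with human NURR-1-Gal4 chimera, human RXRα or RXRγ, and 5Gal4pGL3-TK-Luc reporter; compounds added at 10^−4 to 3·10^−10 M final, overnight incubation, luciferase read. Induction over each heterodimer's baseline expressed as % of reference RXR agonist XCT0135908 (2·10^−5 M) taken as 100%.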

[2] = molecular target: hNurr1_RXRαFL (NURR1/RXRα heterodimer) (Homo sapiens, UniProt P19793+P43354); test: Transactivation assay in Cos-7 cells, NURR-1-Gal4 / RXRα, luciferase reporter; type: cell-based; details: for Emax: COS-7, read-out: hNurr1_RXRαFL Eff (%), efficacy in % relative to the reference XCT0135908 at 2·10^−5 M (=100%); for EC50: Cos-7 cells, overnight incubation
Method in brief: as §1

Sequence of hNurr1_RXRαFL (NURR1/RXRα heterodimer) (P19793 whole entry, the tested form may be a part): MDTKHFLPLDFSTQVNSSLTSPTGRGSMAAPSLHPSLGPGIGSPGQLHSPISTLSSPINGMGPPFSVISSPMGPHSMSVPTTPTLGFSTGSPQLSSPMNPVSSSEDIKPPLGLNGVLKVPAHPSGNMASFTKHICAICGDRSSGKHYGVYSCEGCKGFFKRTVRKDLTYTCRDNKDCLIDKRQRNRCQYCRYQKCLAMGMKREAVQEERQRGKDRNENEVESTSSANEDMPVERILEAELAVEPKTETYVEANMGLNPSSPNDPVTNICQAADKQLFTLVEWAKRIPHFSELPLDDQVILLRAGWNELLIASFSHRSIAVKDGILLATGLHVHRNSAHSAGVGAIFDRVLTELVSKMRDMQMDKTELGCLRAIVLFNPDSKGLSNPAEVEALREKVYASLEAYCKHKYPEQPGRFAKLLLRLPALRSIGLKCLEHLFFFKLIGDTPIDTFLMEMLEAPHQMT
Sequence of hNurr1_RXRαFL (NURR1/RXRα heterodimer) (P43354 328-598): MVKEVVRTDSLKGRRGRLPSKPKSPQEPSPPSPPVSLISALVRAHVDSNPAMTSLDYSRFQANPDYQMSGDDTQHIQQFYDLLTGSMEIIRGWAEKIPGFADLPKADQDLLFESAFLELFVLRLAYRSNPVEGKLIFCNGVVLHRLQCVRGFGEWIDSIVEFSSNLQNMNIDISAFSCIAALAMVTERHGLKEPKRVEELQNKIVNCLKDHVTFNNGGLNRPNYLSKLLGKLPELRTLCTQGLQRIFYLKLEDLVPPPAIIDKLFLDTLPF
Sequence of hNurr1_RXRγFL (NURR1/RXRγ heterodimer) (P43354 328-598): as above
Sequence of hNurr1_RXRγFL (NURR1/RXRγ heterodimer) (P48443 whole entry, the tested form may be a part): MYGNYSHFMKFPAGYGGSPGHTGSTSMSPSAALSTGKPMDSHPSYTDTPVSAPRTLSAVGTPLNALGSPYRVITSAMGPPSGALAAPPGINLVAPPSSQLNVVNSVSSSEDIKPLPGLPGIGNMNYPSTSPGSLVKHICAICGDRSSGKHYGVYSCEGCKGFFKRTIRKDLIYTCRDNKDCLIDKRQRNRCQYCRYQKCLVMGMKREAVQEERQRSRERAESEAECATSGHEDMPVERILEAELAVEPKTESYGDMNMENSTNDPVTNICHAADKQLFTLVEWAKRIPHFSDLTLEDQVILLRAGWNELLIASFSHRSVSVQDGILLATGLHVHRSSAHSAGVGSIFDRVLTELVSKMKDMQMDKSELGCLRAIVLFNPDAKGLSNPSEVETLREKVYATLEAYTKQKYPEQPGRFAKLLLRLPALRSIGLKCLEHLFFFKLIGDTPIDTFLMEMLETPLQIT

SMILES | Emax [1] [%] | EC50 [1] [nM] | Emax [2] [%] | EC50 [2] [nM]
CC(C)(C)c1cccc(S(=O)(=O)n2c(Cc3ccc(C(=O)O)cc3)cc3cc(C(F)(F)F)c(F)cc32)c1 [Example 117, 4-[[1-[[3-(1,1-dimethylethyl)phenyl]sulfonyl]-5-(trifluoro)-6-fluoro-1H-indol-2-yl]methyl]benzoic acid] | 73 | 91 | 84 | 39
O=C(O)c1ccc(Cc2cc3cc(Cl)ccc3n2S(=O)(=O)c2ccc(F)c(Cl)c2)cc1 [Example 150, 4-[[1-[3-chloro-4-fluoro-phenylsulfonyl]-5-(chloro)-1H-indol-2-yl]methyl]benzoic acid] | 96 | 501 | 103 | 299
COc1cc(Cc2cc3cc(Cl)ccc3n2S(=O)(=O)c2ccc(C(C)C)cc2)ccc1C(=O)O [Example 98, 4-[[5-chloro-1-[[4-(1-methylethyl)phenyl]sulfonyl]-1H-indol-2-yl]methyl]-2-methoxybenzoic acid] | 8 | > 10000 | 64 | 2120
CC(C)(C)c1cccc(S(=O)(=O)n2c(C(F)c3ccc(C(=O)O)cc3)cc3cc(C(F)(F)F)ccc32)c1 (centres unmarked) [Example 217, 4-[[1-[[3-(1,1-dimethylethyl)phenyl]sulfonyl]-5-(trifluoromethyl)-1H-indol-2-yl]fluoromethyl]benzoic acid] | 80 | 355 | 83 | 149
O=C(O)c1ccc(Cc2cc3cc(Cl)ccc3n2S(=O)(=O)c2ccc(-c3ccc(F)cc3)cc2)cc1 [Example 179, 4-[[1-[4′-fluoro-biphenyl-4-sulfonyl]-5-(chloro)-1H-indol-2-yl]methyl]benzoic acid] | 26 | > 10000 | 62 | 331
CC(C)c1ccc(S(=O)(=O)n2c(Cc3ccc(C(=O)O)c(O)c3)cc3cc(Cl)ccc32)cc1 [Example 99, 4-[[5-chloro-1-[[4-(1-methylethyl)phenyl]sulfonyl]-1H-indol-2-yl]methyl]-2-hydroxybenzoic acid] | 42 | 989 | 50 | 569
CC1(C)CCc2ccc(S(=O)(=O)n3c(Cc4ccc(C(=O)O)cc4)cc4cc(Cl)ccc43)cc2O1 [Example 173, 4-[[5-chloro-1-[(3,4-dihydro-2,2-dimethyl-2H-1-benzopyran-7-yl)sulfonyl]-1H-indol-2-yl]methyl]-benzoic acid] | 73 | 498 | 78 | 145
CC(C)(C)c1cccc(S(=O)(=O)n2c(Cc3cccc(C(=O)O)c3)cc3cc(C(F)(F)F)ccc32)c1 [Example 8, 3-[[1-[[3-(1,1-dimethylethyl)phenyl]sulfonyl]-5-(trifluoromethyl)-1H-indol-2-yl]methyl]benzoic acid] | 74 | 99 | 96 | 101
CCS(=O)(=O)n1c(Cc2ccc(C(=O)O)cc2)cc2cc(Cl)ccc21 [Example 176, 4-[[5-chloro-1-(ethylsulfonyl)-1H-indol-2-yl]methyl]benzoic acid] | 21 | > 10000 | 33 | 3390
CC(C)c1ccc(S(=O)(=O)n2c(Cc3ccc(C(=O)O)c(Cl)c3)cc3cc(C(F)(F)F)ccc32)cc1 [Example 209, 4-[[1-[[4-(1-methylethyl)-phenyl]sulfonyl]-5-trifluoromethyl-1H-indol-2-yl]methyl]-2-chlorobenzoic acid] | 51 | 741 | 69 | 333
CC(C)(C)c1cccc(S(=O)(=O)n2c(Cc3ccc(-c4nn[nH]n4)cc3)cc3cc(C(F)(F)F)ccc32)c1 [Example 221, 4-[1-[3-(1,1-dimethylethyl)phenyl]sulfonyl]-5-(trifluoromethyl)-1H-indol-2H-tetrazol-5-yl-benzyl] | 57 | 162 | 66 | 191
O=C(O)c1ccc(Cc2cc3cc(Cl)ccc3n2S(=O)(=O)c2ccc(F)cc2)cc1 [Example 167, 4-[[1-[4-fluoro-phenylsulfonyl]-5-(chloro)-1H-indol-2-yl]methyl]benzoic acid] | 40 | 2440 | 48 | 1150
O=C(O)c1ccc(Cc2cc3cc(C(F)(F)F)ccc3n2S(=O)(=O)c2ccsc2)cc1 [Example 16, 4-[[1-(3-thienylsulfonyl)-5-(trifluoromethyl)-1H-indol-2-yl]methyl]benzoic acid] | 45 | 628 | 66 | 617
O=C(O)c1ccc(Cc2cc3cc(C(F)(F)F)ccc3n2S(=O)(=O)c2ccc(F)c(Cl)c2)cc1 [Example 15, 4-[[1-[(3-chloro-4-fluorophenyl)sulfonyl]-5-(trifluoromethyl)-1H-indol-2-yl]methyl]benzoic acid] | 54 | 746 | 66 | 372
CC(C)(C)c1cccc(S(=O)(=O)n2c(Cc3cncc(C(=O)O)c3)cc3cc(C(F)(F)F)ccc32)c1 [Example 204, 3-[[1-[[3-(1,1-dimethylethyl)-phenyl]sulfonyl]-5-trifluoromethyl-1H-indol-2-yl]methyl]-5-pyridine carboxylic acid] | 93 | 195 | 102 | 107
O=C(O)c1ccc(Cc2cc3cc(Cl)ccc3n2S(=O)(=O)c2cc3ccccc3o2)cc1 [Example 177, 4-[[1-[benzofuran-2-sulfonyl]-5-(chloro)-1H-indol-2-yl]methyl]benzoic acid] | 17 | > 10000 | 39 | > 10000
CC(C)(C)c1cccc(S(=O)(=O)n2c(Cc3ccc(C(=O)O)o3)cc3cc(C(F)(F)F)ccc32)c1 [Example 69, 5-[[1-[[3-(1,1-dimethylethyl)-phenyl]sulfonyl]-5-trifluoromethyl-1H-indol-2-yl]methyl]-furan-2-carboxylic acid] | 72 | 15 | 79 | 9
CC(C)(C)c1cccc(S(=O)(=O)n2c(Cc3ccc(F)c(C(=O)O)c3)cc3cc(C(F)(F)F)ccc32)c1 [Example 210, 3-[[1-[[3-(1,1-dimethylethyl)-phenyl]sulfonyl]-5-trifluoromethyl-1H-indol-2-yl]methyl]-6-fluorobenzoic acid] | 68 | 81 | 70 | 69
COc1cccc(S(=O)(=O)n2c(Cc3ccc(C(=O)O)cc3)cc3cc(Cl)ccc32)c1 [Example 166, 4-[[1-[3-methoxy-phenylsulfonyl]-5-(chloro)-1H-indol-2-yl]methyl]benzoic acid] | 27 | 1070 | 50 | 681
O=C(O)c1cncc(Cc2cc3cc(Cl)ccc3n2S(=O)(=O)c2ccc3c(c2)OCCO3)c1 [Example 213, 3-[[1-[(2,3-dihydro-benzo[1,4]dioxin-6-yl)sulfonyl]-5-chloro-1H-indol-2-yl]methyl]-5-pyridine carboxylic acid] | 31 | > 10000 | 45 | 3000
COc1ccc(S(=O)(=O)n2c(Cc3ccc(C(=O)O)cc3)cc3cc(Cl)ccc32)cn1 [Example 169, 4-[[5-chloro-1-[(6-methoxy-3-pyridinyl)sulfonyl]-1H-indol-2-yl]methyl]benzoic acid] | 28 | 2490 | 46 | 1010
O=C(O)c1ccc(Cc2cc3cc(C(F)(F)F)ccc3n2S(=O)(=O)c2ccc(OC(F)(F)F)cc2)cc1 [Example 142, 4-[[1-[4-trifluoromethoxy-phenylsulfonyl]-5-(trifluoromethyl)-1H-indol-2-yl]methyl]benzoic acid] | 19 | 816 | 38 | 459
CC1(C)CCc2cc(S(=O)(=O)n3c(Cc4ccc(C(=O)O)cc4)cc4cc(C(F)(F)F)ccc43)ccc2O1 [Example 132, 4-[[1-[(3,4-dihydro-2,2-dimethyl-2H-1-benzopyran-6-yl)sulfonyl]-5-(trifluoromethyl)-1H-indol-2-yl]methyl]benzoic acid] | 28 | 352 | 45 | 221
CN1CCOc2ccc(S(=O)(=O)n3c(Cc4ccc(C(=O)O)c(Cl)c4)cc4cc(C(F)(F)F)ccc43)cc21 [Example 211, 4-[[1-[[4-methyl-3,4-dihydro-2H-benzo[1,4]oxazin-6-yl]-sulfonyl]-5-trifluoromethyl-1H-indol-2-yl]methyl]-2-chlorobenzoic acid] | 56 | 465 | 83 | 385
O=C(O)c1ccc(Cc2cc3cc(C(F)(F)F)ccc3n2S(=O)(=O)c2cccc(SC(F)F)c2)cc1 [Example 126, 4-[[1-[3-difluoromethylsulfanyl-phenylsulfonyl]-5-(trifluoromethyl)-1H-indol-2-yl]methyl]benzoic acid] | 32 | 141 | 44 | 122
COC(=O)c1ccc(Cc2cc3cc(C(F)(F)F)c(F)cc3n2S(=O)(=O)c2cccc(C(C)(C)C)c2)cc1 [Example 110, 4-[[1-[[3-(1,1-dimethylethyl)phenyl]sulfonyl]-5-(trifluoro)-6-fluoro-1H-indol-2-yl]methyl]benzoic acid, methyl ester] | 95 | 63 | 92 | 15
